From paper PMC11466185, “Mechanisms and efficacy of small molecule latency-promoting agents to inhibit HIV reactivation ex vivo” (JCI Insight, 2024)
Several values for one entry are separate records, joined by “and”; a condition that tells them apart may be missing. Equal values may be shown once.

Test system: HIV transcripts (TAR, LLTR, Pol, PolyA, TatRev)
Test: Latency reversal assay: cell-associated HIV transcripts (RT-ddPCR) 24 hours after anti-CD3/CD28 activation of PBMCs from ART-suppressed PWH
Format: cell-based
Parameters: key to TatRev: % of activated DMSO control, normalized to 1 μg total RNA
Conditions: for Pol HIV transcripts (DMSO αCD3/28 = 100) / PolyA HIV transcripts (DMSO αCD3/28 = 100) / TatRev HIV transcripts (DMSO αCD3/28 = 100): αCD3/28-activated, ruxolitinib 4μM, triptolide 25-50nM, alvocidib 40nM, dinaciclib 8nM, AZD4573 8nM, quercetin 5μM, pladienolide B 10nM, isoginkgetin 25μM, herboxidiene 5nM, KRIBB11 2.5μM, tanespimycin 5μM, mithramycin A 25nM; for PolyA/LLTR / TatRev/PolyA / LLTR/TAR: DMSO+CD3/28 = 1, Fig 3B, C and D; for PolyA / TatRev: DMSO+αCD3/28 = 100, Fig 3A
Method in brief: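 PBMCs from ART-suppressed people with HIV (6 × 10^6 cells/well) treated with drug in DMSO, activated with anti-CD3/CD28 beads with antiretrovirals, harvested after 24 hours. TAR, LLTR, Pol, PolyA and TatRev transcripts measured by RT-ddPCR, normalized to 1 μg total RNA, expressed as % of activated DMSO control.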

[1] = 100nM, 24 h after αCD3/28 activation, each column one participant
[2] = 10/100nM, 24 h after αCD3/28 activation, each column one participant

Question: For pladienolide B, which “LLTR HIV transcripts (DMSO+αCD3/28 = 100)” value [1] is on record?
Answer: 105.44 and 112.17

Question: What about the “Pol HIV transcripts (DMSO+αCD3/28 = 100)” value [1] of the same substance?
Answer: 61.14 and 46.29

Question: What about the “TatRev HIV transcripts (DMSO+αCD3/28 = 100)” value [1] of the same substance?
Answer: 0

Question: What about the “LLTR HIV transcripts (DMSO+αCD3/28 = 100)” value [2] of the same substance?
Answer: 105.44 and 112.17 and 22.15 and 34.23 and 14.5 and 7.78 and 32.23

Question: What about the “Pol HIV transcripts (DMSO+αCD3/28 = 100)” value [2] of the same substance?
Answer: 61.14 and 46.29 and 2.85 and 58.11 and 12.19 and 5.03 and 29.65

Question: What about the “PolyA HIV transcripts (DMSO+αCD3/28 = 100)” value [2] of the same substance?
Answer: 25.19 and 8

Question: And the “TAR HIV transcripts (DMSO+αCD3/28 = 100)” value [2]?
Answer: 70.83 and 56.32 and 43.76 and 138.46

Question: What about the “TatRev HIV transcripts (DMSO+αCD3/28 = 100)” value [2] of the same substance?
Answer: 0 (4×) and 2.98 and 6.21 and 11.47

Question: What about the “HIV transcriptional completion, ratio PolyA/LLTR” value (24 hours, compared with activated DMSO, Figure 3C) of the same substance?
Answer: reduced

Question: What about the “HIV multiple splicing, ratio TatRev/PolyA” value (24 hours, compared with activated DMSO, Figure 3D) of the same substance?
Answer: reduce HIV multiple splicing

Question: What about the “Reduction of multiply spliced or completed HIV transcripts in drug screen (selection as candidate LPA)” value (initial screening, 2 participants, 24 hours) of the same substance?
Answer: more than 50%

Question: What about the “Completed (PolyA) HIV transcripts, median relative to activated DMSO, initial screening” value (initial screening, 2 participants, 24 hours, Supplemental Figure 2) of the same substance?
Answer: 17%

Question: What about the “Pol HIV transcripts (DMSO αCD3/28 = 100)” value (participant 2027) of the same substance?
Answer: 56.14

Question: What about the “PolyA HIV transcripts (DMSO αCD3/28 = 100)” value (participant 2027) of the same substance?
Answer: 45.13

Question: What about the “TatRev HIV transcripts (DMSO αCD3/28 = 100)” value (participant 2027) of the same substance?
Answer: 0

Question: What about the “Pol HIV transcripts (DMSO αCD3/28 = 100)” value (participant 2147a) of the same substance?
Answer: 74.51

Question: What about the “PolyA HIV transcripts (DMSO αCD3/28 = 100)” value (participant 2147a) of the same substance?
Answer: 38.34

Question: What about the “TatRev HIV transcripts (DMSO αCD3/28 = 100)” value (participant 2147a) of the same substance?
Answer: 22.95

Question: What about the “Pol HIV transcripts (DMSO αCD3/28 = 100)” value (participant 2161) of the same substance?
Answer: 44.19

Question: What about the “PolyA HIV transcripts (DMSO αCD3/28 = 100)” value (participant 2161) of the same substance?
Answer: 152.38

Question: And the “TatRev HIV transcripts (DMSO αCD3/28 = 100)” value (participant 2161)?
Answer: 381.82

Question: And the “PolyA HIV transcripts (DMSO αCD3/28 = 100)” value (participant 2461)?
Answer: 53.85

Question: What about the “Pol HIV transcripts (DMSO αCD3/28 = 100)” value (participant 2747) of the same substance?
Answer: 21.03

Question: What about the “PolyA HIV transcripts (DMSO αCD3/28 = 100)” value (participant 2747) of the same substance?
Answer: 65.33

Question: And the “TatRev HIV transcripts (DMSO αCD3/28 = 100)” value (participant 2747)?
Answer: 0

Question: And the “Pol HIV transcripts (DMSO αCD3/28 = 100)” value (participant 2750)?
Answer: 212.24

Question: What about the “PolyA HIV transcripts (DMSO αCD3/28 = 100)” value (participant 2750) of the same substance?
Answer: 74.85

Question: What about the “TatRev HIV transcripts (DMSO αCD3/28 = 100)” value (participant 2750) of the same substance?
Answer: 155

Question: What about the “Multiply spliced HIV transcripts (TatRev) (Fig 1B)” value (study participant 150a, 24 hours) of the same substance?
Answer: 0 % of activated DMSO

Question: And the PolyA/LLTR (study participant 150a)?
Answer: 0.2389

Question: And the TatRev/PolyA (study participant 150a)?
Answer: 0

Question: And the PolyA (study participant 150a)?
Answer: 25.19

Question: What about the TatRev (study participant 150a) of the same substance?
Answer: 0

Question: And the “Multiply spliced HIV transcripts (TatRev) (Fig 1B)” value (study participant 152, 24 hours)?
Answer: 0 % of activated DMSO

Question: And the PolyA/LLTR (study participant 152)?
Answer: 0.07129

Question: What about the TatRev/PolyA (study participant 152) of the same substance?
Answer: 0

Question: And the PolyA (study participant 152)?
Answer: 8

Question: And the TatRev (study participant 152)?
Answer: 0

Question: What about the PolyA/LLTR (study participant 163) of the same substance?
Answer: 0.2589

Question: And the TatRev/PolyA (study participant 163)?
Answer: 0

Question: What about the PolyA (study participant 163) of the same substance?
Answer: 5.73

Question: What about the TatRev (study participant 163) of the same substance?
Answer: 0

Question: And the LLTR/TAR (study participant 1379)?
Answer: 0.1778

Question: And the PolyA/LLTR (study participant 1379)?
Answer: 0.4115

Question: And the TatRev/PolyA (study participant 1379)?
Answer: 0

Question: What about the PolyA (study participant 1379) of the same substance?
Answer: 3.2

Question: What about the TatRev (study participant 1379) of the same substance?
Answer: 0

Question: And the LLTR/TAR (study participant 2147b)?
Answer: 0.4833

Question: What about the PolyA/LLTR (study participant 2147b) of the same substance?
Answer: 0.2849

Question: And the TatRev/PolyA (study participant 2147b)?
Answer: 0.3058

Question: What about the PolyA (study participant 2147b) of the same substance?
Answer: 9.75

Question: And the TatRev (study participant 2147b)?
Answer: 2.98

Question: What about the LLTR/TAR (study participant 2256) of the same substance?
Answer: 0.2575

Question: What about the PolyA/LLTR (study participant 2256) of the same substance?
Answer: 0.2751

Question: What about the TatRev/PolyA (study participant 2256) of the same substance?
Answer: 1.556

Question: And the PolyA (study participant 2256)?
Answer: 3.99

Question: And the TatRev (study participant 2256)?
Answer: 6.21

Question: And the LLTR/TAR (study participant 5557)?
Answer: 0.2328

Question: And the PolyA/LLTR (study participant 5557)?
Answer: 0.5006

Question: What about the TatRev/PolyA (study participant 5557) of the same substance?
Answer: 0.7112

Question: What about the PolyA (study participant 5557) of the same substance?
Answer: 16.13

Question: And the TatRev (study participant 5557)?
Answer: 11.47
